PubChem BioAssay AID1919009 (Molecular Pharmacology Branch, DTP, NCI, 2023)
“And” between values parts separate entries of the source, which are not always exact repeats. Equal values may be shown once.

System: K24384-001-R-PDC complex spheroid growth
Experiment: Anticancer human tumor K24384-001-R-PDC patient-derived pancreatic adenocarcinoma cell line growth inhibition [AhR]
Conditions: for viability, T/C: stronger effect = lower value
Method in brief: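 Spheroids combined tumor cells with HUVEC endothelial cells and human MSCs as stroma. AhR antagonists were paired with standard or investigational drugs, each dosed in half-log steps down from near clinical Cmax, or from 10 microM where Cmax was unknown.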

[1] = curve of first compound, second compound 0.1 µM
[2] = curve of first compound, second compound 0.316 µM
[3] = curve of first compound, second compound 1 µM
[4] = curve of first compound, second compound 3.16 µM
[5] = curve of first compound, second compound 10 µM
[6] = second compound 0.1 µM, first compound 0.0316 µM
[7] = second compound 0.1 µM, first compound 0.1 µM
[8] = second compound 0.1 µM, first compound 0.316 µM
[9] = second compound 0.1 µM, first compound 1 µM
[10] = second compound 0.1 µM, first compound 3.16 µM
[11] = second compound 0.1 µM, first compound 10 µM
[12] = second compound 0.316 µM, first compound 0.0316 µM
[13] = second compound 0.316 µM, first compound 0.1 µM
[14] = second compound 0.316 µM, first compound 0.316 µM
[15] = second compound 0.316 µM, first compound 1 µM
[16] = second compound 0.316 µM, first compound 3.16 µM
[17] = second compound 0.316 µM, first compound 10 µM
[18] = second compound 1 µM, first compound 0.0316 µM
[19] = second compound 1 µM, first compound 0.1 µM
[20] = second compound 1 µM, first compound 0.316 µM
[21] = second compound 1 µM, first compound 1 µM
[22] = second compound 1 µM, first compound 3.16 µM
[23] = second compound 1 µM, first compound 10 µM
[24] = second compound 3.16 µM, first compound 0.0316 µM
[25] = second compound 3.16 µM, first compound 0.1 µM
[26] = second compound 3.16 µM, first compound 0.316 µM
[27] = second compound 3.16 µM, first compound 1 µM
[28] = second compound 3.16 µM, first compound 3.16 µM
[29] = second compound 3.16 µM, first compound 10 µM
[30] = second compound 10 µM, first compound 0.0316 µM
[31] = second compound 10 µM, first compound 0.1 µM
[32] = second compound 10 µM, first compound 0.316 µM
[33] = second compound 10 µM, first compound 1 µM
[34] = second compound 10 µM, first compound 3.16 µM
[35] = second compound 10 µM, first compound 10 µM
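Wherever viability, T/C is given: percent of DMSO vehicle-treated spheroid viability set as 100%.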

Row | Compound | IC50 [1] | IC50 [2] | IC50 [3] | IC50 [4] | IC50 [5] | viability, T/C [6] | viability, T/C [7] | viability, T/C [8] | viability, T/C [9] | viability, T/C [12] | viability, T/C [13] | viability, T/C [14] | viability, T/C [15] | viability, T/C [18] | viability, T/C [19] | viability, T/C [20] | viability, T/C [21] | viability, T/C [24] | viability, T/C [25] | viability, T/C [26] | other results
1 | CC(C)c1c(-c2ccccc2)nc2c(C#N)c[nH]n2c1=O + Cc1cncc(-c2nc(NCCc3c[nH]c4ccccc34)c3ncn(C(C)C)c3n2)c1 | > 10 µM | > 10 µM | > 10 µM | > 10 µM | < 0.0316 µM | 108% | 110% | 106% | 102% | 104% | 101% | 115% | 95.7% | 108% | 110% | 94.5% | 95.1% | 83.7% | 91.4% | 82.6% | viability, T/C [10]: 85.6%; viability, T/C [11]: 85.8%; viability, T/C [16]: 87.5%; viability, T/C [17]: 77.3%; viability, T/C [22]: 99%; viability, T/C [23]: 69.1%; viability, T/C [27]: 61.9%; viability, T/C [28]: 70.4%; viability, T/C [29]: 77.3%; viability, T/C [30]: 7.78%; viability, T/C [31]: 6.78%; viability, T/C [32]: 7.75%; viability, T/C [33]: 8.55%; viability, T/C [34]: 7.71%; viability, T/C [35]: 10.2%
2 | COc1ccc([C@@H](O)c2cc(-c3ncnc4cc(N5CCOCC5)ccc34)c(F)cc2Cl)nn1 |  |  |  |  |  |  |  |  |  |  |  |  |  |  |  |  |  |  |  |  | viability, T/C (compound 0.0316 µM): 107% and 86.3% and 109%; viability, T/C (compound 0.1 µM): 101% (2×) and 104%; viability, T/C (compound 0.316 µM): 96.8% and 94.6% and 105%; viability, T/C (compound 1 µM): 76% and 81.3% and 72.5%; viability, T/C (compound 3.16 µM): 63.3% and 73.9% and 71.7%; viability, T/C (compound 10 µM): 37.4% and 39.9% and 49.7%; IC50 (curve of compound): 5.51 µM and 7.03 µM and > 10 µM
3 | CC1COCCN1c1cc(-c2ccnn2C)c2ccnc(-c3ccn[nH]3)c2n1 (configuration not stated) + Cc1cncc(-c2nc(NCCc3c[nH]c4ccccc34)c3ncn(C(C)C)c3n2)c1 | 0.0739 µM | 0.0933 µM | 0.0905 µM | 0.0552 µM | < 0.00316 µM | 65.3% | 46.1% | 25.7% | 22.2% | 89.1% | 46.4% | 31.8% | 20.5% | 87.3% | 46.9% | 24.8% | 24.6% | 69% | 30.1% | 27.3% | viability, T/C (second compound 0.1 µM, first compound 0.00316 µM): 88.3%; viability, T/C (second compound 0.1 µM, first compound 0.01 µM): 81.3%; viability, T/C (second compound 0.316 µM, first compound 0.00316 µM): 95.6%; viability, T/C (second compound 0.316 µM, first compound 0.01 µM): 95.8%; viability, T/C (second compound 1 µM, first compound 0.00316 µM): 94.5%; viability, T/C (second compound 1 µM, first compound 0.01 µM): 104%; viability, T/C (second compound 3.16 µM, first compound 0.00316 µM): 73%; viability, T/C (second compound 3.16 µM, first compound 0.01 µM): 88.3%; viability, T/C [27]: 27.7%; viability, T/C (second compound 10 µM, first compound 0.00316 µM): 7.24%; viability, T/C (second compound 10 µM, first compound 0.01 µM): 7.46%; viability, T/C [30]: 8.32%; viability, T/C [31]: 5.4%; viability, T/C [32]: 4.59%; viability, T/C [33]: 6.27%
4 | CC1(C)CCC(CN2CCN(c3ccc(C(=O)NS(=O)(=O)c4ccc(NCC5CCOCC5)c([N+](=O)[O-])c4)c(Oc4cnc5[nH]ccc5c4)c3)CC2)=C(c2ccc(Cl)cc2)C1 + Cc1ccccc1N=Nc1ccc(NC(=O)c2ccnn2C)c(C)c1 | > 10 µM | > 10 µM | 9.66 µM | 9.75 µM | > 10 µM | 111% | 119% | 113% | 102% | 123% | 112% | 132% | 114% | 108% | 102% | 122% | 112% | 111% | 107% | 114% | viability, T/C [10]: 86.5%; viability, T/C [11]: 52.3%; viability, T/C [16]: 118%; viability, T/C [17]: 51.7%; viability, T/C [22]: 114%; viability, T/C [23]: 48.1%; viability, T/C [27]: 112%; viability, T/C [28]: 112%; viability, T/C [29]: 48.5%; viability, T/C [30]: 116%; viability, T/C [31]: 147%; viability, T/C [32]: 131%; viability, T/C [33]: 129%; viability, T/C [34]: 111%; viability, T/C [35]: 57.8%
5 | O=C(c1cc(Cc2n[nH]c(=O)c3ccccc23)ccc1F)N1CCN(C(=O)C2CC2)CC1 + CC(CO)NC(=O)c1cc(-c2ccc(Cl)cc2)nn(-c2cnn(C)c2)c1=O | > 10 µM | > 10 µM | > 10 µM | > 10 µM | > 10 µM | 92.9% | 95.3% | 89.2% | 76.7% | 108% | 99.6% | 103% | 82.3% | 99.8% | 104% | 99.2% | 72.3% | 90.6% | 96.7% | 83.5% | viability, T/C [10]: 66.8%; viability, T/C [11]: 62.2%; viability, T/C [16]: 73.3%; viability, T/C [17]: 70.4%; viability, T/C [22]: 76%; viability, T/C [23]: 67.9%; viability, T/C [27]: 78.3%; viability, T/C [28]: 63.5%; viability, T/C [29]: 59.2%; viability, T/C [30]: 74.5%; viability, T/C [31]: 72.7%; viability, T/C [32]: 74%; viability, T/C [33]: 71.9%; viability, T/C [34]: 65.8%; viability, T/C [35]: 69.7%
